The test has as its system nude mice, LX-1 lung xenograft intrarenal, tumor weight T/C. The test is described as follows: NCI In Vivo Anticancer Drug Screen. Data for tumor model Human Lung LX-1 Xenograft (intrarenal inoculation) in NU/NU Swiss (nude) mice. The conditions noted are these: endpoint: mean tumor weight change, higher = larger tumour. An outline of the steps: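 Readout: T/C, i.e. treated-group tumor measurement over vehicle-control measurement. Mice bearing transplantable tumors were dosed with compound or vehicle.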

The mark [1] stands for this setting: dose: 100.0 mg/kg/injection, schedule: Q01DX010 (sc), vehicle: saline with Tween-80.
The mark [2] stands for this setting: dose: 200.0 mg/kg/injection, schedule: Q01DX010 (sc), vehicle: saline with Tween-80.
Setting [3] is: dose: 400.0 mg/kg/injection, schedule: Q01DX010 (sc), vehicle: saline with Tween-80.
The mark [4] stands for this setting: dose: 50.0 mg/kg/injection, schedule: Q01DX010 (sc), vehicle: saline with Tween-80.

Values joined by “and” are separate entries in the source; they are usually repeats but may differ in a detail not shown here. Identical values can stand only once. Records with an inconclusive call do not appear. Numbered stars: 1 amine (or outer) side, 2 acyl side, 3 side chain; on linkers, the order of the positions; unused ones are H or OH. Bridge positions count the residues as written; N and C are the ends. Square brackets hold non-standard residues; d marks the D form. Peptide text beside a SMILES is read from it. I, II: the chains in the order shown. Actinocin(9to1) = Cc1c2oc3c(C)ccc(C(=O)[*:1])c3nc-2c(C(=O)[*:2])c(N)c1=O; aThr = C[C@H](O)[C@H](N)C(=O)O; NMeV = CN[C@H](C(=O)O)C(C)C; Sar = CNCC(=O)O

Consider 19 compounds from PubChem BioAssay AID264 (DTP/NCI, 2004).

Turning to `CC1(C)CC1(Br)Br`, the T/C is, setting by setting: under setting [1], 160 % of control; under setting [2], 76 % of control and 77 % of control; under setting [3], 58 % of control.
Turning to `CC(=O)NC(C=O)OCC=O` (configuration not stated), the T/C runs as follows: (dose: 100.0 mg/kg/injection, schedule: Q04DX003 (sc), vehicle: water) 116 % of control; (dose: 200.0 mg/kg/injection, schedule: Q04DX003 (sc), vehicle: water) 112 % of control; (dose: 400.0 mg/kg/injection, schedule: Q04DX003 (sc), vehicle: water) 121 % of control.
Regarding `O=C/C(Cl)=C(/Cl)C(=O)O`, the T/C was 124 % of control (dose: 5.0 mg/kg/injection, schedule: Q01DX010 (sc), vehicle: saline with Tween-80); 210 % of control (dose: 10.0 mg/kg/injection, schedule: Q01DX010 (sc), vehicle: saline with Tween-80); 72 % of control and 213 % of control (dose: 20.0 mg/kg/injection, schedule: Q01DX010 (sc), vehicle: saline with Tween-80); 48 % of control and 65 % of control (dose: 40.0 mg/kg/injection, schedule: Q01DX010 (sc), vehicle: saline with Tween-80).
As for `COc1ccc(CC2C(=O)NC(C)C(=O)N(C)C3C(=O)N(C)C(Cc4ccc(O)c(c4)Oc4ccc(cc4)C3O)C(=O)NC(C)C(=O)NC(C)C(=O)N2C)cc1` (configuration not stated), the T/C (dose: 0.5 mg/kg/injection, schedule: Q01DX010 (sc), vehicle: saline with Tween-80) is 69 % of control; the T/C (dose: 1.0 mg/kg/injection, schedule: Q01DX010 (sc), vehicle: saline with Tween-80) is 85 % of control; the T/C (dose: 2.0 mg/kg/injection, schedule: Q01DX010 (sc), vehicle: saline with Tween-80) is 96 % of control; the T/C (dose: 4.0 mg/kg/injection, schedule: Q01DX010 (sc), vehicle: saline with Tween-80) is 40 % of control.
With `O=c1oc2c(O)c(O)cc3c(=O)oc4c(O)c(O)cc1c4c23`, the T/C runs as follows: (dose: 150.0 mg/kg/injection, schedule: Q04DX003 (sc), vehicle: Klucel (hydroxypropylcellulose) (HPC)) 215 % of control; (dose: 300.0 mg/kg/injection, schedule: Q04DX003 (sc), vehicle: Klucel (hydroxypropylcellulose) (HPC)) 86 % of control; (dose: 600.0 mg/kg/injection, schedule: Q04DX003 (sc), vehicle: Klucel (hydroxypropylcellulose) (HPC)) 88 % of control; (dose: 1200.0 mg/kg/injection, schedule: Q04DX003 (sc), vehicle: Klucel (hydroxypropylcellulose) (HPC)) 81 % of control.
On to `c1cc2n(n1)CCN2`, for which the T/C is 90 % of control and 233 % of control (dose: 50.0 mg/kg/injection, schedule: Q01DX010 (sc), vehicle: saline); 117 % of control and 124 % of control (dose: 100.0 mg/kg/injection, schedule: Q01DX010 (sc), vehicle: saline); 35 % of control (dose: 200.0 mg/kg/injection, schedule: Q01DX010 (sc), vehicle: saline); 67 % of control (dose: 333.33 mg/kg/injection, schedule: Q04DX003 (ip), vehicle: saline).
On to `CSc1cc(C)[o+]c(C)c1`, for which the T/C was 87 % of control (dose: 100.0 mg/kg/injection, schedule: Q04DX003 (sc), vehicle: Klucel (hydroxypropylcellulose) (HPC)) and 76 % of control (dose: 200.0 mg/kg/injection, schedule: Q04DX003 (sc), vehicle: Klucel (hydroxypropylcellulose) (HPC)).
Consider `Cc1c2oc3c(C)ccc(C(=O)N[C@@H]4C(=O)N[C@H](C(C)C)C(=O)N5CCC[C@H]5C(=O)N(C)CC(=O)N(C)[C@@H](C(C)C)C(=O)O[C@H]4C)c3nc-2c(C(=O)N[C@@H]2C(=O)N[C@H](C(C)C)C(=O)N3CCC[C@H]3C(=O)N(C)CC(=O)N(C)[C@@H](C(C)C)C(=O)O[C@H]2C)c(N)c1=O` (I: [aThr][dV]P[Sar][NMeV] / II: [aThr][dV]P[Sar][NMeV]; ester I:1-I:C, II:1-II:C; linker I:N-II:N via Actinocin(9to1)), for which the T/C is 13 % of control and 24 % of control (dose: 100.0 micrograms/kg/injection, schedule: Q01DX010 (sc), vehicle: saline); 13 % of control (dose: 200.0 micrograms/kg/injection, schedule: Q01DX010 (sc), vehicle: saline).
On to `OCCOCC(F)(F)F`, for which the T/C by setting is: (dose: 300.0 mg/kg/injection, schedule: Q04DX003 (sc), vehicle: saline) 78 % of control; (dose: 600.0 mg/kg/injection, schedule: Q04DX003 (sc), vehicle: saline) 95 % of control.
As for `O=C(NO)c1cc(O)c(O)c(O)c1`, the T/C is 66 % of control (dose: 200.0 mg/kg/injection, schedule: Q04DX003 (sc), vehicle: distilled water + Tween-80); 87 % of control (dose: 400.0 mg/kg/injection, schedule: Q04DX003 (sc), vehicle: distilled water + Tween-80); 100 % of control (dose: 800.0 mg/kg/injection, schedule: Q04DX003 (sc), vehicle: distilled water + Tween-80); 90 % of control (dose: 1600.0 mg/kg/injection, schedule: Q04DX003 (sc), vehicle: distilled water + Tween-80).
As for `COc1ccc2nc3cc(Cl)ccc3c(NCCNCCNCCNc3c4ccc(Cl)cc4nc4ccc(OC)cc34)c2c1`, the T/C is 81 % of control (dose: 12.5 mg/kg/injection, schedule: Q01DX010 (sc), vehicle: saline with Tween-80); 106 % of control under setting [4]; 70 % of control under setting [2]; 46 % of control under setting [3].
As for `Cc1cc2cc3cc(C)c(N)cc3nc2cc1N`, the T/C runs as follows: (dose: 100.0 mg/kg/injection, schedule: Q04DX003 (sc), vehicle: saline with Tween-80) 77 % of control; (dose: 200.0 mg/kg/injection, schedule: Q04DX003 (sc), vehicle: saline with Tween-80) 51 % of control; (dose: 400.0 mg/kg/injection, schedule: Q04DX003 (sc), vehicle: saline with Tween-80) 63 % of control; (dose: 800.0 mg/kg/injection, schedule: Q04DX003 (sc), vehicle: saline with Tween-80) 95 % of control.
`NCCCC(N)(C(=O)O)C(F)F` (configuration not stated): the T/C reads like this: (dose: 300.0 mg/kg/injection, schedule: Q04DX003 (sc), vehicle: distilled water + alcohol) 101 % of control; (dose: 600.0 mg/kg/injection, schedule: Q04DX003 (sc), vehicle: distilled water + alcohol) 87 % of control; (dose: 1200.0 mg/kg/injection, schedule: Q04DX003 (sc), vehicle: distilled water + alcohol) 82 % of control; (dose: 2400.0 mg/kg/injection, schedule: Q04DX003 (sc), vehicle: distilled water + alcohol) 92 % of control.
Turning to `C1OC1CN1CCN(CC2CO2)CC1` (configuration not stated), the T/C (dose: 16.0 mg/kg/injection, schedule: Q01DX010 (sc), vehicle: saline) is 27 % of control.
For the compound `COC1=CC(=O)N(C(=O)C2CSC(C(CO)NC(=O)c3csc(/C=N/O)n3)=N2)C1` (configuration not stated), the T/C is, setting by setting: (dose: 225.0 mg/kg/injection, schedule: Q04DX003 (sc), vehicle: Klucel (hydroxypropylcellulose) (HPC)) 59 % of control; (dose: 450.0 mg/kg/injection, schedule: Q04DX003 (sc), vehicle: Klucel (hydroxypropylcellulose) (HPC)) 112 % of control; (dose: 900.0 mg/kg/injection, schedule: Q04DX003 (sc), vehicle: Klucel (hydroxypropylcellulose) (HPC)) 87 % of control; (dose: 1800.0 mg/kg/injection, schedule: Q04DX003 (sc), vehicle: Klucel (hydroxypropylcellulose) (HPC)) 50 % of control.
For `ClCC[Se](Cl)(Cl)c1ccccc1`, the T/C (dose: 12.5 mg/kg/injection, schedule: Q04DX003 (sc), vehicle: saline) was 92 % of control; the T/C (dose: 25.0 mg/kg/injection, schedule: Q04DX003 (sc), vehicle: saline) is 70 % of control; the T/C (dose: 50.0 mg/kg/injection, schedule: Q04DX003 (sc), vehicle: saline) is 46 % of control.
For `CCCCNC(C)[C@]1(O)Cc2c(O)c3c(c(O)c2[C@@H](OC2CC(N)C(O)C(C)O2)C1)C(=O)c1c(OC)cccc1C3=O` (some centres not stated), the T/C reads like this: (dose: 6.25 mg/kg/injection, schedule: Q01DX010 (sc), vehicle: saline) 69 % of control; (dose: 12.5 mg/kg/injection, schedule: Q01DX010 (sc), vehicle: saline) 68 % of control.
For `COc1cc2c(c(OC)c1OC)-c1ccc(OC)c(=O)cc1[C@@H](NC(C)=O)CC2`, the T/C runs as follows: (dose: 0.25 mg/kg/injection, schedule: Q01DX010 (sc), vehicle: saline) 87 % of control; (dose: 0.5 mg/kg/injection, schedule: Q01DX010 (sc), vehicle: saline) 50 % of control.
Take `O=CN(SSN(C=O)C1CCCCC1)C1CCCCC1`: the T/C runs as follows: under setting [4], 395 % of control; under setting [1], 104 % of control; under setting [2], 234 % of control; under setting [3], 97 % of control and 122 % of control; (dose: 800.0 mg/kg/injection, schedule: Q01DX010 (sc), vehicle: saline with Tween-80) 48 % of control; (dose: 1600.0 mg/kg/injection, schedule: Q01DX010 (sc), vehicle: saline with Tween-80) 54 % of control.
